# Measured values: patent US20210045385A1, “PYRIDAZINONE-SUBSTITUTED KETOXIMES AS HERBICIDES” (FMC Corporation, priority 2018, published 2021)
# Assays:
# Assay type in all cases: in vivo
# [1] = system: Italian ryegrass (Lolium mutiflorum); assay: Test C preemergence, visual plant response rating; conditions: Test C, 0 is no effect, 100 is complete control
# In short: (§1)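 Seeds sown in a loam–sand blend got a directed preemergence soil spray; postemergence plants (2–10 cm, one- to two-leaf stage) were sprayed with compound in a non-phytotoxic solvent plus surfactant. Injury was scored visually against untreated controls after about 10 d in a greenhouse on a 0–100 scale (100 = complete control).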
# [2] = system: barnyardgrass (Echinochloa crus-galli); assay: Test C preemergence, visual plant response rating; conditions: Test C, 0 is no effect, 100 is complete control
# In short: as §1
# [3] = system: foxtail, giant (giant foxtail, Setaria faberi); assay: Test C preemergence, visual plant response rating; conditions: Test C, 0 is no effect, 100 is complete control
# In short: as §1
# kochia (Bassia scoparia) [4] = assay: Test C preemergence, visual plant response rating; conditions: Test C, 0 is no effect, 100 is complete control
# In short: as §1
# [5] = system: pigweed (Amaranthus retroflexus); assay: Test C preemergence, visual plant response rating; conditions: Test C, 0 is no effect, 100 is complete control
# In short: as §1
# [6] = system: Italian ryegrass (Lolium mutiflorum); assay: Test C postemergence, visual plant response rating
# Excerpt: (§2) Seeds of plant species selected from barnyardgrass (Echinochloa crus-galli), kochia (Bassia scoparia), ragweed (common ragweed, Ambrosia artemisiifolia), Italian ryegrass (Lolium mutiflorum), foxtail, giant (giant foxtail, Setaria faberi), foxtail, green (green foxtail, Setaria viridis), and pigweed (Amaranthus retroflexus) were planted into a blend of loam soil and sand and treated preemergence with a directed soil spray using test chemicals formulated in anon-phytotoxic solvent mixture which included a surfactant.
# (§3) At the same time, plants selected from these weed species and also wheat (Triticum aestivum), corn (Zea mays), blackgrass (Alopecurus myosuroides), and galium (catchweed bedstraw, Galium aparine) were planted in pots containing the same blend of loam soil and sand and treated with post emergence applications of test chemicals formulated in the same manner. Plants ranged in height from 2 to 10 cm and were in the one- to two-leaf stage for the postemergence treatment. Treated plants and untreated controls were maintained in a greenhouse for approximately 10 d, after which time all treated plants were compared to untreated controls and visually evaluated for injury. Plant response ratings, summarized in Table C, are based on a 0 to 100 scale where 0 is no effect and 100 is complete control. A dash (-)response means no test result.
# [7] = system: barnyardgrass (Echinochloa crus-galli); assay: Test C postemergence, visual plant response rating
# Excerpt: as §2, §3
# [8] = system: blackgrass (Alopecurus myosuroides); assay: Test C postemergence, visual plant response rating
# Excerpt: as §2, §3
# corn (Zea mays) = assay: Test C postemergence, visual plant response rating
# Excerpt: as §2, §3
# [9] = system: foxtail, giant (giant foxtail, Setaria faberi); assay: Test C postemergence, visual plant response rating
# Excerpt: as §2, §3
# [10] = system: galium (catchweed bedstraw, Galium aparine); assay: Test C postemergence, visual plant response rating
# Excerpt: as §2, §3
# kochia (Bassia scoparia) [11] = assay: Test C postemergence, visual plant response rating
# Excerpt: as §2, §3
# [12] = system: pigweed (Amaranthus retroflexus); assay: Test C postemergence, visual plant response rating
# Excerpt: as §2, §3
# [13] = system: ragweed (common ragweed, Ambrosia artemisiifolia); assay: Test C postemergence, visual plant response rating
# Excerpt: as §2, §3
# [14] = system: wheat (Triticum aestivum); assay: Test C postemergence, visual plant response rating
# Excerpt: as §2, §3
# [15] = system: barnyardgrass (Echinochloa crus-galli); assay: Test D flooded paddy test, visual plant response rating; conditions: 250 g ai/ha, scale 0 to 100 (0 no effect, 100 complete control), 13 to 15 d
# Description: (§4) Plant species in the flooded paddy test selected from rice (Oryza sativa), sedge umbrella (small-flower umbrella sedge, Cyperus difformis) duck salad (Heteranthera limosa), and barnyardgrass (Echinochloa crus-galli) were grown to the 2-leaf stage for testing. At time of treatment, test pots were flooded to 3 cm above the soil surface, treated by application of test compounds directly to the paddy water, and then maintained at that water depth for the duration of the test. Treated plants and controls were maintained in a greenhouse for 13 to 15 d, after which time all species were compared to controls and visually evaluated. Plant response ratings, summarized in Table D, are based on a scale of 0 to 100 where 0 is no effect and 100 is complete control. A dash (-) response means no test result.
# [16] = system: duck salad (Heteranthera limosa); assay: as above; conditions: 250 g ai/ha, scale 0 to 100 (0 no effect, 100 complete control), 13 to 15 d
# Description: as §4
# rice (Oryza sativa) = assay: as above; conditions: 250 g ai/ha, scale 0 to 100 (0 no effect, 100 complete control), 13 to 15 d
# Description: as §4
# [17] = system: sedge umbrella (small-flower umbrella sedge, Cyperus difformis); assay: as above; conditions: 250 g ai/ha, scale 0 to 100 (0 no effect, 100 complete control), 13 to 15 d
# Description: as §4
# [18] = Test C, postemergence, 125 g ai/ha
smiles,measurement,setting,value
CO/N=C(\c1c(O)c(Cl)nn(C)c1=O)c1cc(Br)cc2ccccc12 [Compound 250],"Ryegrass, Italian plant response rating (0 to 100 scale)",[1]; 31 g ai/ha,0
same,"Ryegrass, Italian plant response rating (0 to 100 scale)",[1]; 125 g ai/ha,0
same,Barnyardgrass plant response rating (0 to 100 scale),[2]; 31 g ai/ha,70
same,Barnyardgrass plant response rating (0 to 100 scale),[2]; 125 g ai/ha,80
same,"Foxtail, Giant plant response rating (0 to 100 scale)",[3]; 31 g ai/ha,40
same,"Foxtail, Giant plant response rating (0 to 100 scale)",[3]; 125 g ai/ha,80
same,Kochia plant response rating (0 to 100 scale),kochia (Bassia scoparia) [4]; 31 g ai/ha,0
same,Kochia plant response rating (0 to 100 scale),kochia (Bassia scoparia) [4]; 125 g ai/ha,80
same,Pigweed plant response rating (0 to 100 scale),[5]; 31 g ai/ha,10
same,Pigweed plant response rating (0 to 100 scale),[5]; 125 g ai/ha,70
same,"Ryegrass, Italian plant response rating (0 to 100 scale)","[6]; Postemergence, 31 g ai/ha",0
same,"Ryegrass, Italian plant response rating (0 to 100 scale)",[6]; [18],0
same,Barnyardgrass plant response rating (0 to 100 scale),"[7]; Postemergence, 31 g ai/ha",50
same,Barnyardgrass plant response rating (0 to 100 scale),[7]; [18],80
same,Blackgrass plant response rating (0 to 100 scale),"[8]; Postemergence, 31 g ai/ha",10
same,Blackgrass plant response rating (0 to 100 scale),[8]; [18],30
same,Corn plant response rating (0 to 100 scale),"corn (Zea mays); Postemergence, 31 g ai/ha",0
same,Corn plant response rating (0 to 100 scale),corn (Zea mays); [18],10
same,"Foxtail, Giant plant response rating (0 to 100 scale)","[9]; Postemergence, 31 g ai/ha",20
same,"Foxtail, Giant plant response rating (0 to 100 scale)",[9]; [18],80
same,Galium plant response rating (0 to 100 scale),"[10]; Postemergence, 31 g ai/ha",90
same,Galium plant response rating (0 to 100 scale),[10]; [18],100
same,Kochia plant response rating (0 to 100 scale),"kochia (Bassia scoparia) [11]; Postemergence, 31 g ai/ha",40
same,Kochia plant response rating (0 to 100 scale),kochia (Bassia scoparia) [11]; [18],60
same,Pigweed plant response rating (0 to 100 scale),"[12]; Postemergence, 31 g ai/ha",50
same,Pigweed plant response rating (0 to 100 scale),[12]; [18],70
same,Ragweed plant response rating (0 to 100 scale),"[13]; Postemergence, 31 g ai/ha",100
same,Ragweed plant response rating (0 to 100 scale),[13]; [18],100
same,Wheat plant response rating (0 to 100 scale),"[14]; Postemergence, 31 g ai/ha",0
same,Wheat plant response rating (0 to 100 scale),[14]; [18],0
same,"Plant response rating, Barnyardgrass (Flood)",[15],25
same,"Plant response rating, Ducksalad (Flood)",[16],85
same,"Plant response rating, Rice (Flood)",rice (Oryza sativa),10
same,"Plant response rating, Sedge, Umbrella (Flood)",[17],70
